Assay results taken from PubChem BioAssay (NCI).
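Each compound was tested at five concentrations against cells in 96-well plates for 48 hours. TGI: concentration producing complete growth inhibition.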

Legend:
Test in all cases: NCI-60 cell line screen, 48 h
UO-31 renal = tested on: UO-31 renal
NCI-H23 lung = tested on: NCI-H23 lung
COLO 205 colon = tested on: COLO 205 colon
MALME-3M melanoma = tested on: MALME-3M melanoma
SN12C renal = tested on: SN12C renal
EKVX NSCLC = tested on: EKVX NSCLC
MCF7 breast = tested on: MCF7 breast
SW-620 colon = tested on: SW-620 colon
HCC-2998 colon = tested on: HCC-2998 colon
SNB-19 CNS = tested on: SNB-19 CNS
OVCAR-5 ovarian = tested on: OVCAR-5 ovarian
A549 NSCLC = tested on: A549 NSCLC
MDA-MB-231 breast = tested on: MDA-MB-231 breast
786-0 renal = tested on: 786-0 renal
UACC-257 melanoma = tested on: UACC-257 melanoma
NCI-H226 lung = tested on: NCI-H226 lung
NCI/ADR-RES ovarian = tested on: NCI/ADR-RES ovarian
ACHN renal = tested on: ACHN renal
PC-3 prostate = tested on: PC-3 prostate
SK-MEL-5 melanoma = tested on: SK-MEL-5 melanoma
TK-10 renal = tested on: TK-10 renal
MOLT-4 leukemia = tested on: MOLT-4 leukemia
HCT-116 colon = tested on: HCT-116 colon
CCRF-CEM leukemia = tested on: CCRF-CEM leukemia
SF-295 CNS = tested on: SF-295 CNS
M14 melanoma = tested on: M14 melanoma
SNB-75 CNS = tested on: SNB-75 CNS
CAKI-1 renal = tested on: CAKI-1 renal
BT-549 breast = tested on: BT-549 breast
HT29 colon = tested on: HT29 colon
HCT-15 colon = tested on: HCT-15 colon
SF-539 CNS = tested on: SF-539 CNS
UACC-62 melanoma = tested on: UACC-62 melanoma
U251 CNS = tested on: U251 CNS
SR leukemia = tested on: SR leukemia
K-562 leukemia = tested on: K-562 leukemia
OVCAR-8 ovarian = tested on: OVCAR-8 ovarian
NCI-H522 lung = tested on: NCI-H522 lung
LOX IMVI melanoma = tested on: LOX IMVI melanoma
SF-268 CNS = tested on: SF-268 CNS
SK-OV-3 ovarian = tested on: SK-OV-3 ovarian
IGROV1 ovarian = tested on: IGROV1 ovarian
NCI-H460 lung = tested on: NCI-H460 lung
MDA-N = tested on: MDA-N
HL-60(TB) leukemia = tested on: HL-60(TB) leukemia
DU-145 prostate = tested on: DU-145 prostate
HOP-62 NSCLC = tested on: HOP-62 NSCLC
T-47D breast = tested on: T-47D breast
HOP-92 NSCLC = tested on: HOP-92 NSCLC
OVCAR-4 ovarian = tested on: OVCAR-4 ovarian
RPMI-8226 leukemia = tested on: RPMI-8226 leukemia
A498 renal = tested on: A498 renal
OVCAR-3 ovarian = tested on: OVCAR-3 ovarian
MDA-MB-435 = tested on: MDA-MB-435
KM12 colon = tested on: KM12 colon
SK-MEL-2 melanoma = tested on: SK-MEL-2 melanoma
HS 578T breast = tested on: HS 578T breast
HOP-18 NSCLC = tested on: HOP-18 NSCLC
KM20L2 colon = tested on: KM20L2 colon
SK-MEL-28 melanoma = tested on: SK-MEL-28 melanoma
M19-MEL melanoma = tested on: M19-MEL melanoma
LXFL 529 NSCLC = tested on: LXFL 529 NSCLC
SNB-78 CNS = tested on: SNB-78 CNS
DLD-1 colon = tested on: DLD-1 colon
RXF 393 renal = tested on: RXF 393 renal

Cc1cc2nnc(C(N)=O)c(N)c2cc1C showed a TGI (UO-31 renal) greater than 100 µM, a TGI (NCI-H23 lung) greater than 100 µM and a TGI (COLO 205 colon) greater than 100 µM. The TGI (MALME-3M melanoma) was greater than 100 µM, the TGI (SN12C renal) was greater than 100 µM and the TGI (EKVX NSCLC) was greater than 100 µM. It also gave a TGI (MCF7 breast) greater than 100 µM, a TGI (SW-620 colon) greater than 100 µM and a TGI (HCC-2998 colon) greater than 100 µM. It also gave a TGI (SNB-19 CNS) greater than 100 µM, a TGI (OVCAR-5 ovarian) greater than 100 µM and a TGI (A549 NSCLC) greater than 100 µM. It also gave a TGI (MDA-MB-231 breast) greater than 100 µM, a TGI (786-0 renal) of 68.3 µM and a TGI (UACC-257 melanoma) greater than 100 µM. For the same compound, the TGI (NCI-H226 lung) was greater than 100 µM, the TGI (NCI/ADR-RES ovarian) was greater than 100 µM and the TGI (ACHN renal) was greater than 100 µM. It also gave a TGI (PC-3 prostate) greater than 100 µM, a TGI (SK-MEL-5 melanoma) greater than 100 µM and a TGI (TK-10 renal) greater than 100 µM. It also gave a TGI (MOLT-4 leukemia) greater than 100 µM, a TGI (HCT-116 colon) greater than 100 µM and a TGI (CCRF-CEM leukemia) greater than 100 µM. For the same compound, the TGI (SF-295 CNS) was greater than 100 µM, the TGI (M14 melanoma) was greater than 100 µM and the TGI (SNB-75 CNS) was 39.6 µM. It also gave a TGI (CAKI-1 renal) greater than 100 µM, a TGI (BT-549 breast) greater than 100 µM and a TGI (HT29 colon) greater than 100 µM. For the same compound, the TGI (HCT-15 colon) was greater than 100 µM, the TGI (SF-539 CNS) was greater than 100 µM and the TGI (UACC-62 melanoma) was greater than 100 µM. For the same compound, the TGI (U251 CNS) was greater than 100 µM, the TGI (SR leukemia) was greater than 100 µM and the TGI (K-562 leukemia) was greater than 100 µM. For the same compound, the TGI (OVCAR-8 ovarian) was greater than 100 µM, the TGI (NCI-H522 lung) was greater than 100 µM and the TGI (LOX IMVI melanoma) was greater than 100 µM. It also gave a TGI (SF-268 CNS) greater than 100 µM, a TGI (SK-OV-3 ovarian) greater than 100 µM and a TGI (IGROV1 ovarian) greater than 100 µM. For the same compound, the TGI (NCI-H460 lung) was greater than 100 µM, the TGI (MDA-N) was greater than 100 µM and the TGI (HL-60(TB) leukemia) was greater than 100 µM. The TGI (DU-145 prostate) was greater than 100 µM, the TGI (HOP-62 NSCLC) was greater than 100 µM and the TGI (T-47D breast) was greater than 100 µM. It also gave a TGI (HOP-92 NSCLC) greater than 100 µM, a TGI (OVCAR-4 ovarian) greater than 100 µM and a TGI (RPMI-8226 leukemia) greater than 100 µM. It also gave a TGI (A498 renal) greater than 100 µM, a TGI (OVCAR-3 ovarian) greater than 100 µM and a TGI (MDA-MB-435) greater than 100 µM. For the same compound, the TGI (KM12 colon) was greater than 100 µM, the TGI (SK-MEL-2 melanoma) was greater than 100 µM and the TGI (HS 578T breast) was greater than 100 µM.

CCOC(=O)C1=C(C(=O)OCC)C2(c3ccccc3)N(O1)c1ccccc1C2(C)C (stereo unspecified) gave a TGI (UO-31 renal) of 67.1 µM, a TGI (NCI-H23 lung) greater than 100 µM and a TGI (COLO 205 colon) greater than 100 µM. It also gave a TGI (MALME-3M melanoma) greater than 100 µM, a TGI (EKVX NSCLC) greater than 100 µM and a TGI (HOP-18 NSCLC) of 83.3 µM. It also gave a TGI (SW-620 colon) greater than 100 µM, a TGI (KM20L2 colon) greater than 100 µM and a TGI (HCC-2998 colon) greater than 100 µM. For the same compound, the TGI (SNB-19 CNS) was greater than 100 µM, the TGI (OVCAR-5 ovarian) was greater than 100 µM and the TGI (A549 NSCLC) was greater than 100 µM. The TGI (786-0 renal) was greater than 100 µM, the TGI (UACC-257 melanoma) was greater than 100 µM and the TGI (NCI-H226 lung) was greater than 100 µM. The TGI (SK-MEL-5 melanoma) was greater than 100 µM, the TGI (TK-10 renal) was greater than 100 µM and the TGI (MOLT-4 leukemia) was greater than 100 µM. For the same compound, the TGI (HCT-116 colon) was greater than 100 µM, the TGI (CCRF-CEM leukemia) was greater than 100 µM and the TGI (SF-295 CNS) was greater than 100 µM. It also gave a TGI (M14 melanoma) greater than 100 µM, a TGI (SNB-75 CNS) of 89.5 µM and a TGI (CAKI-1 renal) greater than 100 µM. It also gave a TGI (HT29 colon) greater than 100 µM, a TGI (SF-539 CNS) greater than 100 µM and a TGI (UACC-62 melanoma) greater than 100 µM. The TGI (U251 CNS) was greater than 100 µM, the TGI (K-562 leukemia) was greater than 100 µM and the TGI (OVCAR-8 ovarian) was greater than 100 µM. It also gave a TGI (NCI-H522 lung) of 63.8 µM, a TGI (SF-268 CNS) greater than 100 µM and a TGI (SK-OV-3 ovarian) of 95.2 µM. The TGI (IGROV1 ovarian) was greater than 100 µM, the TGI (SK-MEL-28 melanoma) was greater than 100 µM and the TGI (M19-MEL melanoma) was greater than 100 µM. The TGI (NCI-H460 lung) was greater than 100 µM, the TGI (HL-60(TB) leukemia) was 53 µM and the TGI (HOP-62 NSCLC) was greater than 100 µM. For the same compound, the TGI (LXFL 529 NSCLC) was greater than 100 µM, the TGI (OVCAR-4 ovarian) was 71.8 µM and the TGI (RPMI-8226 leukemia) was 57.3 µM. It also gave a TGI (SNB-78 CNS) greater than 100 µM, a TGI (A498 renal) greater than 100 µM and a TGI (DLD-1 colon) greater than 100 µM. The TGI (OVCAR-3 ovarian) was greater than 100 µM, the TGI (KM12 colon) was greater than 100 µM and the TGI (SK-MEL-2 melanoma) was greater than 100 µM. For the same compound, the TGI (RXF 393 renal) was greater than 100 µM.
